Patent US6960337B2, “Methods and compositions for treating benign gynecological disorders” (Balance Pharmaceuticals, Inc., priority 2002, dated 2005)
Several values for one entry are separate records, joined by “and”; a condition that tells them apart may be missing. Equal entries are not always repeated. Where two headings read alike, the source gives them in different places.

Experiments:
[1] = tested on: premenopausal women with uterine leiomyomata; assay: Uterine size (uterine volume calculated from ultrasound dimensions), Example 2; assay type: in vivo, human
Procedure: (§1) A 12 week study was performed to establish an effective dose of deslorelin for controlling heavy bleeding secondary to uterine leiomyomata. Forty-one women completed the study and are identified as Subject Nos. 1-41. The women were divided into test groups for treatment with intranasal deslorelin as follows:
(§2) An intranasal preparation consisting of deslorelin at the indicated concentration along with sorbitol (61.6 mg/mL), benzalkonium chloride (0.1 mg/mL), and water was prepared according to the procedure of Example 1. The preparation was administered with a commercially available nasal sprayer that delivered a 50 μL spray volume. The preparation was administered by application of 50 μL to each nostril once per day, for a total daily spray volume of 100 μL to give the indicated dose of deslorelin.
(§3) The average age of the premenopausal patients was 42.3, with similar distribution among groups. For one complete menstrual cycle prior to treatment, each woman completed a daily bleeding calendar. Eligible subjects were then treated with deslorelin at the assigned dosage once per day by intranasal application. During the 12 weeks of daily intranasal administration, each woman kept a daily bleeding calendar, completed quality of life questionnaires, and underwent clinical assessment and laboratory testing. The subjects were tracked for 6 weeks post-treatment for further assessment and to document time to recovery of menses after last drug treatment day. Clinical assessments included grading of nasal irritation (Table 3A), determination of uterine size (Table 3B), and serum hormone levels (Table 3C).

[2] = tested on: ovarian estrogen and progesterone production; assay: Serum hormone levels, 12 week intranasal deslorelin study (Example 2); assay type: in vivo, human
Procedure: Testosterone levels are also similar.
as §1, §2, §3

[3] = tested on: heavy bleeding secondary to uterine leiomyomata; assay: Bleeding score from daily bleeding calendar (sum of 28 day diary entries; 0 no bleeding, 5 normal flow, 10 or greater menorrhagia), Example 2; assay type: in vivo, human
Procedure: as §1, §2, §3

[4] = tested on: ovarian suppression (serum estradiol and progesterone levels); assay type: in vivo, human; conditions: for Hormone Levels: Progesterone: daily, individual subjects
Procedure: Example 4 describes a study performed in support of the invention where the nasal preparation is similar to that of Example 1, comprised of a GnRH compound, estradiol, and testosterone, was administered to healthy, premenopausal women. Three doses of the GnRH compound deslorelin were tested, 0.5 mg, 1.0 mg, and 2.0 mg. The nasal preparation was administered using a conventional metered nasal spray delivery device. The subjects received two 50 μL sprays, one in each nostril, daily for four weeks. Blood samples were collected prior to drug administration on day 1 of the study, and then at regular intervals throughout day 1. Thereafter, blood samples were collected weekly, until day 29, when blood was collected at scheduled intervals throughout the day. Serum deslorelin, estradiol, testosterone, and progesterone were quantified, and the results are shown in Tables 4A through 4C, below in Example 4.
Nine premenopausal women, ages 20 to 45 years, were recruited and randomly divided into three test groups for a 29 day study. […] The single intranasal administration consisted of a 100 μL dose delivered using a metered nasal spray device as two 50 μL sprays, one in each nostril.
An indwelling intravenous catheter was inserted in an arm vein for withdrawal of blood samples prior to drug administration and at defined intervals post administration (study day 1) of 40, 120, 240, and 480 minutes. Thereafter, weekly blood samples (study days 8, 15, and 22) were collected for determination of serum estradiol, progesterone, testosterone, and deslorelin levels. On study day 29 post administration, blood samples were drawn according to the same regimen on study day 1. After collection, all blood samples were allowed to clot at room temperature, then refrigerated. Within 24 hours of collection, serum was separated and stored frozen at −5° C. until assayed.
Serum levels of estradiol, testosterone, and progesterone were quantitated by sensitive and specific radioimmunoassay methods (Stanczyk, F. Z. et al., Am. J Obstet. Gynecol., 159(6):1540 (1988); Scott et al., Am. J Obstet. Gynecol., 130(7):817 (1978)). Prior to assay of the steroid hormones, serum was extracted with ethyl acetate:hexane (1:1) and for the testosterone assay further purified via Celite™ column chromatography, with 40% toluene to elute the testosterone. Procedural losses were followed by addition of 1000 dpm of the appropriate tritiated internal standard. The sensitivities of the estradiol, testosterone, and progesterone assays were 8 pg/mL, 4 ng/dL, and 10 ng/dL, respectively. […] Intra- and inter-assay coefficients of variation were 5% to 10% and 10% to 15%, respectively. Specificity of the assays was enhanced by eliminating interfering metabolites with extraction and/or chromatography and through the use of highly specific antisera.

[5] = cited from earlier work
[6] = 0.5 mg/day intranasal, Baseline
[7] = 0.5 mg/day intranasal, End of Week 4
[8] = 0.5 mg/day intranasal, End of Week 8
[9] = 0.5 mg/day intranasal, End of Week 12
[10] = 1 mg/day intranasal, End of Week 4
[11] = 1 mg/day intranasal, End of Week 8
[12] = 1 mg/day intranasal, End of Week 12
[13] = 2 mg/day intranasal, End of Week 4
[14] = 2 mg/day intranasal, End of Week 8
[15] = 2 mg/day intranasal, End of Week 12
[16] = 0.5-2.0 mg daily intranasal over the 12 week period

SMILES: CCNC(=O)[C@@H]1CCCN1C(=O)[C@H](CCCN=C(N)N)NC(=O)[C@H](CC(C)C)NC(=O)[C@@H](Cc1c[nH]c2ccccc12)NC(=O)[C@H](Cc1ccc(O)cc1)NC(=O)[C@H](CO)NC(=O)[C@H](Cc1c[nH]c2ccccc12)NC(=O)[C@H](Cc1cnc[nH]1)NC(=O)[C@@H]1CCC(=O)N1 [deslorelin, (pyro)Pro-His-Trp-Ser-Tyr-DTrp-Leu-Arg-Pro-ethylamide]
- Uterine Size, Mean Difference (end of week 12 minus baseline uterine volume) ([1]; 0.5 mg/day intranasal): −109.6 cm^3
- Uterine Size, Mean Difference (end of week 12 minus baseline uterine volume) ([1]; 1 mg/day intranasal): −63.6 cm^3
- Uterine Size, Mean Difference (end of week 12 minus baseline uterine volume) ([1]; 2 mg/day intranasal): −246.5 cm^3
- uterine volume (summary in words) ([1]; 0.5, 1.0, 2.0 mg daily intranasal, 12 weeks, said to correlate directly with dose): reduction in uterine volume
- Hormone Levels: Estradiol [2, 6]: 173 pg/mL
- Hormone Levels: Progesterone [2, 6]: 641 ng/dL
- Hormone Levels: Testosterone [2, 6]: 24 ng/dL
- Hormone Levels: Estradiol [2, 7]: 47 pg/mL
- Hormone Levels: Progesterone [2, 7]: 40 ng/dL
- Hormone Levels: Testosterone [2, 7]: 19 ng/dL
- Hormone Levels: Estradiol [2, 8]: 79 pg/mL
- Hormone Levels: Progesterone [2, 8]: 30 ng/dL
- Hormone Levels: Testosterone [2, 8]: 22 ng/dL
- Hormone Levels: Estradiol [2, 9]: 66 pg/mL
- Hormone Levels: Progesterone [2, 9]: 37 ng/dL
- Hormone Levels: Testosterone [2, 9]: 23 ng/dL
- Hormone Levels: Estradiol ([2]; 1 mg/day intranasal, Baseline): 123 pg/mL
- Hormone Levels: Progesterone ([2]; 1 mg/day intranasal, Baseline): 480 ng/dL
- Hormone Levels: Testosterone ([2]; 1 mg/day intranasal, Baseline): 26 ng/dL
- Hormone Levels: Estradiol [2, 10]: 51 pg/mL
- Hormone Levels: Progesterone [2, 10]: 12 ng/dL
- Hormone Levels: Testosterone [2, 10]: 22 ng/dL
- Hormone Levels: Estradiol [2, 11]: 95 pg/mL
- Hormone Levels: Progesterone [2, 11]: 25 ng/dL
- Hormone Levels: Testosterone [2, 11]: 20 ng/dL
- Hormone Levels: Estradiol [2, 12]: 30 pg/mL
- Hormone Levels: Progesterone [2, 12]: 10 ng/dL
- Hormone Levels: Testosterone [2, 12]: 16 ng/dL
- Hormone Levels: Estradiol ([2]; 2 mg/day intranasal, Baseline): 184 pg/mL
- Hormone Levels: Progesterone ([2]; 2 mg/day intranasal, Baseline): 337 ng/dL
- Hormone Levels: Testosterone ([2]; 2 mg/day intranasal, Baseline): 34 ng/dL
- Hormone Levels: Estradiol [2, 13]: 14 pg/mL
- Hormone Levels: Progesterone [2, 13]: 12 ng/dL
- Hormone Levels: Testosterone [2, 13]: 16 ng/dL
- Hormone Levels: Estradiol [2, 14]: 31 pg/mL
- Hormone Levels: Progesterone [2, 14]: 14 ng/dL
- Hormone Levels: Testosterone [2, 14]: 20 ng/dL
- Hormone Levels: Estradiol [2, 15]: 30 pg/mL
- Hormone Levels: Progesterone [2, 15]: 13 ng/dL
- Hormone Levels: Testosterone [2, 15]: 20 ng/dL
- reduction in serum estradiol levels (summary in words) [2, 16]: progressive and dose dependent
- serum progesterone levels (summary in words) [2, 16]: progressive suppression with higher dose and longer time
- Bleeding Score ([3]; 0.5 mg/day intranasal, Baseline Score): 10.9
- Bleeding Score ([3]; 0.5 mg/day intranasal, Weeks 1-4): 6.6
- Bleeding Score ([3]; 0.5 mg/day intranasal, Weeks 5-8): 3.5
- Bleeding Score ([3]; 0.5 mg/day intranasal, Weeks 9-12): 2.6
- Bleeding Score ([3]; 1 mg/day intranasal, Baseline Score): 10.8
- Bleeding Score ([3]; 1 mg/day intranasal, Weeks 1-4): 7.8
- Bleeding Score ([3]; 1 mg/day intranasal, Weeks 5-8): 0.4
- Bleeding Score ([3]; 1 mg/day intranasal, Weeks 9-12): 1.7
- Bleeding Score ([3]; 2 mg/day intranasal, Baseline Score): 14.1
- Bleeding Score ([3]; 2 mg/day intranasal, Weeks 1-4): 6.6
- Bleeding Score ([3]; 2 mg/day intranasal, Weeks 5-8): 1.2
- Bleeding Score ([3]; 2 mg/day intranasal, Weeks 9-12): 0.6
- effectiveness (reduction of bleeding and uterine size), in words ([3]; all tested doses (0.5, 1.0, 2.0 mg)): partially or completely effective
- bleeding score (summary in words) ([3]; end of the three month study): marked improvement
- Hormone Levels: Progesterone ([4]; 0.5 mg/mL Deslorelin nasal preparation with estradiol and testosterone, Study Day 1, 0 min): 100 ng/dL and 90 ng/dL and 110 ng/dL
- Hormone Levels: Progesterone ([4]; 0.5 mg/mL Deslorelin nasal preparation with estradiol and testosterone, Study Day 8): 90 ng/dL and 50 ng/dL and 110 ng/dL
- Hormone Levels: Progesterone ([4]; 0.5 mg/mL Deslorelin nasal preparation with estradiol and testosterone, Study Day 15): 100 ng/dL and 40 ng/dL
- Hormone Levels: Progesterone ([4]; 0.5 mg/mL Deslorelin nasal preparation with estradiol and testosterone, Study Day 22): 40 ng/dL (2×) and 50 ng/dL
- Hormone Levels: Progesterone ([4]; 0.5 mg/mL Deslorelin nasal preparation with estradiol and testosterone, Study Day 29, 0 min): 100 ng/dL and 60 ng/dL and 70 ng/dL
- Hormone Levels: Progesterone ([4]; 1.0 mg/mL Deslorelin nasal preparation with estradiol and testosterone, Study Day 8): 50 ng/dL (2×) and 80 ng/dL
- Hormone Levels: Progesterone ([4]; 1.0 mg/mL Deslorelin nasal preparation with estradiol and testosterone, Study Day 15): 50 ng/dL and 30 ng/dL and 70 ng/dL
- Hormone Levels: Progesterone ([4]; 1.0 mg/mL Deslorelin nasal preparation with estradiol and testosterone, Study Day 22): 50 ng/dL (2×) and 60 ng/dL
- Hormone Levels: Progesterone ([4]; 1.0 mg/mL Deslorelin nasal preparation with estradiol and testosterone, Study Day 29, 0 min): 60 ng/dL and 40 ng/dL and 100 ng/dL
- Hormone Levels: Progesterone ([4]; 2.0 mg/mL Deslorelin nasal preparation with estradiol and testosterone, Study Day 1, 0 min): 80 ng/dL and 30 ng/dL and 90 ng/dL
- Hormone Levels: Progesterone ([4]; 2.0 mg/mL Deslorelin nasal preparation with estradiol and testosterone, Study Day 8): 50 ng/dL (2×) and 20 ng/dL
- Progesterone levels during the treatment interval ([4]; all three deslorelin doses, generally, indicating that women were anovulatory): less than 80 ng/dL
- Serum levels of estradiol on day 29 ([4]; in vivo): 0.014 to 0.103 ng/mL

SMILES: OC[C@H]1O[C@@H]2O[C@H]3[C@H](O)[C@@H](O)[C@@H](O[C@H]4[C@H](O)[C@@H](O)[C@@H](O[C@H]5[C@H](O)[C@@H](O)[C@@H](O[C@H]6[C@H](O)[C@@H](O)[C@@H](O[C@H]7[C@H](O)[C@@H](O)[C@@H](O[C@H]8[C@H](O)[C@@H](O)[C@@H](O[C@H]9[C@H](O)[C@@H](O)[C@@H](O[C@H]%10[C@H](O)[C@@H](O)[C@@H](O[C@H]1[C@H](O)[C@H]2O)O[C@@H]%10CO)O[C@@H]9CO)O[C@@H]8CO)O[C@@H]7CO)O[C@@H]6CO)O[C@@H]5CO)O[C@@H]4CO)O[C@@H]3CO [δ-cyclodextrin]
- water solubility (at 25° C., g/100 mL) [5]: 8.19 g/100 mL
